This note sets out measurements from patent publication US9107871B2, “LHRH—antagonists in the treatment of fertility disorders” (ZENTARIS IVP GMBH, priority 1996, dated 2015).

This assay deals with patients undergoing COS/ART. The experiment in a line: Phase II clinical trial of Cetrorelix in controlled ovarian stimulation/superovulation for assisted reproduction (COS/ART). The assay is classed as in vivo, human. To be noted: for premature LH surge: s.c., patients undergoing COS/ART. How it is done: The results of a phase II clinical trial are shown in Table I. A total of 235 patients were treated. […] During multiple dosing, the mean days of Cetrorelix application is 6 days. 25 babies were born by the end of May 1996 (7 following multiple doses; 18 following single/dual doses). […] [table] 238 patients were treated with Cetrorelix by subcutaneous injection of Cetrorelix […]-Lyophilisat. 134 patients were treated with multiple doses and 104 patients with single or dual doses. The multiple doses are 0.25 mg/day or higher. The single dose was 3 mg or higher. […] Multiple doses were applied for 3 to a maximum of 10 days dependent on follicular development.

[1] abbreviates: multiple dose, dose/day, phase II dose finding.

Structures are written as SMILES. Where a SMILES comes first, the peptide text is derived from it. [ ]: non-standard residue; d: D form. dPhe(4-Cl) = N[C@H](Cc1ccc(Cl)cc1)C(=O)O; d2Nal = N[C@H](Cc1ccc2ccccc2c1)C(=O)O; dCit = NC(=O)NCCC[C@@H](N)C(=O)O; d3Pal = N[C@H](Cc1cccnc1)C(=O)O

For `CC(=O)N[C@H](Cc1ccc2ccccc2c1)C(=O)N[C@H](Cc1ccc(Cl)cc1)C(=O)N[C@H](Cc1cccnc1)C(=O)N[C@@H](CO)C(=O)N[C@@H](Cc1ccc(O)cc1)C(=O)N[C@H](CCCNC(N)=O)C(=O)N[C@@H](CC(C)C)C(=O)N[C@@H](CCCNC(=N)N)C(=O)N1CCC[C@H]1C(=O)N[C@H](C)C(N)=O` [Cetrorelix] (Ac-[d2Nal][dPhe(4-Cl)][d3Pal]SY[dCit]LRP[dA]-NH2), the “premature LH surge (FIG. 1, time variation of hormonal levels)” value (FIG. 1) is on record as “absolute prevention of any premature LH surge”. Moreover, the “pregnancies obtained (number)” value came out at 71 (all phase II patients, both regimens); 38 (multiple dose regimen, of 134 patients); 33 (single/dual dosage regimen, of 104 patients). Moreover, the “babies born (number)” value by setting is: (by the end of May 1996, all patients) 25; (by the end of May 1996, following multiple doses) 7; (by the end of May 1996, following single/dual doses) 18; (following multiple doses) 15; (following single/dual doses) 29. Under setting [1], this compound displayed a minimal effective dose of 0.25 min. effect. dose mg. The no effect dose under setting [1] worked out at 0.10 no effect. dose mg. Moreover, the “premature LH surge” value (multiple doses of 0.25 mg/day or higher) is listed as “No premature LH surge” and the “premature LH surge” value (single dose of 3 mg or higher) is on record as “No premature LH surge”. Besides, the “duration of effect to prevent a premature LH surge” value (single dose regimen (one single injection of 3 mg)) is listed as “up to 6.5 days”.
